# Tested on: APAP-induced liver injury
# Assay: APAP-induced liver injury: ROS assay in liver tissue
# Assay type: in vivo, mouse
# Description: The in vivo studies were performed under animal protocols (PRO00007499) and (PRO00006638) approved by the Institutional Animal Care & Use Committee of the University of Michigan, in accordance with the recommendations in the Guide for the Care and Use of Laboratory Animals of the National Institutes of Health. C57BL/6 WT mice (~8 weeks, male, normal chow) were purchased from the Jackson Laboratory and randomly divided into eight groups (8–9 mice per group) treated (IP) as follows: phosphate-buffered saline vehicle once per day for 3 days (G1), APAP alone a single dose at 400 mg/kg on day 1 (G2), DI-1859 alone 25 mg/kg once per day for 3 days (G3), DI-1859 alone 50 mg/kg once per day for 3 days (G4), pretreatment (1 day before the APAP administration) with DI-1859 at 25 mg/kg once per day for 3 days followed with APAP at 400 mg/kg on day (G5), pretreatment (1 day before the APAP administration) with DI-1859 at 50 mg/kg once per day for 3 days followed with APAP at 400 mg/kg on day (G6), APAP a single dose at 400 mg/kg (3 h before the first DI-1859 administration) followed with DI-1859 at 25 mg/Kg once per day for 3 days (G7), and APAP a single dose at 400 mg/kg (3 h before the first DI-1859 administration) followed with DI-1859 at 50 mg/Kg once per day for 3 days (G8).
# To induce acute liver injury, animals received PBS or APAP (400 mg/kg, sigma, A7085) through I.P. injection at 12 p.m. and were sacrificed 48 h afterward. To examine the protective effect of DI-1859 (groups 5 and 6), animals were I.P. injected with compound for 3 consecutive days (9 a.m. on each day, starting 1 day before APAP administration). To examine the restorative effect of DI-1859 (groups 7 and 8), animals were I.P. injected with compound 3 h after APAP administration followed by two additional treatments (9 a.m. on the next 2 days). Body weight and blood glucose level measurement, along with blood sample collection, were performed at 12 p.m. on each day.
# Liver samples were homogenized in a lysis buffer and mixed with a dichlorofluorescein diacetate fluorescent probe (DCF, Sigma, D6883) to a final probe concentration of 5 µM for 1 h at 37 °C. DCF fluorescence was measured using a BioTek Synergy 2 Multi-Mode Microplate Reader (485 nm excitation and 527 nm emission).
# [1] = G3: DI-1859 25 mg/kg, qD for 3 days
# [2] = G4: DI-1859 50 mg/kg, qD for 3 days
# [3] = G5: DI-1859 25 mg/kg qD for 3 days, APAP 400 mg/kg 3 h after the second dose
# [4] = G6: DI-1859 50 mg/kg qD for 3 days, APAP 400 mg/kg 3 h after the second dose
# [5] = G7: APAP 400 mg/kg, then DI-1859 25 mg/kg 3 h after APAP and on day 2 and 3
# [6] = G8: APAP 400 mg/kg, then DI-1859 50 mg/kg 3 h after APAP and on day 2 and 3
smiles,measurement,setting,value
C=C(CN(C)C)C(=O)NC[C@@H](NC(=O)[C@H](Cc1nc2ccc(C(C)C)cc2s1)NC(=O)CC)C1CCCCC1 [DI-1859],"ROS level in mouse liver tissue, mean",[1],7.034 A.U./ug
same,"ROS level normalised to the mean of G1 (vehicle), mean",[1],0.9296
same,"ROS level in mouse liver tissue, mean",[2],7.229 A.U./ug
same,"ROS level normalised to the mean of G1 (vehicle), mean",[2],0.9554
same,"ROS level in mouse liver tissue, mean",[3],10.9296 A.U./ug
same,"ROS level normalised to the mean of G1 (vehicle), mean",[3],1.445
same,"ROS level in mouse liver tissue, mean",[4],8.337 A.U./ug
same,"ROS level normalised to the mean of G1 (vehicle), mean",[4],1.102
same,"ROS level in mouse liver tissue, mean",[5],10.4847 A.U./ug
same,"ROS level normalised to the mean of G1 (vehicle), mean",[5],1.3857
same,"ROS level in mouse liver tissue, mean",[6],10.3541 A.U./ug
same,"ROS level normalised to the mean of G1 (vehicle), mean",[6],1.368
same,effect on the level of reactive oxygen species (ROS),prevention and treatment settings,effectively reduced the level of reactive oxygen species
